Test results published in ChEMBL document CHEMBL5352440, “Promising antimalarials targeting apicoplast DNA polymerase from Plasmodium falciparum” (Eur J Med Chem, 2022).
Activity calls are given as the source filed them. The rule behind the calls is not given here.

Assays:
[1] = biological target: DNA polymerase I (Escherichia coli) (UniProt P00582); experiment: Inhibition of Escherichia coli DNA polymerase I
Plasmodium falciparum [2] = experiment: Antiparasitic activity against Plasmodium falciparum NF54 with attB plasmid infected in red blood cells assessed as reduction in parasitemia incubated for 72 hrs; type: functional, organism-based, Red blood cell; conditions: NF54, Erythrocyte
[3] = biological target: T1, DNA-directed DNA polymerase (Enterobacteria phage T4) (UniProt P04415); experiment: Inhibition of Enterobacteria T4 phage DNA polymerase
T1 sequence (whole entry): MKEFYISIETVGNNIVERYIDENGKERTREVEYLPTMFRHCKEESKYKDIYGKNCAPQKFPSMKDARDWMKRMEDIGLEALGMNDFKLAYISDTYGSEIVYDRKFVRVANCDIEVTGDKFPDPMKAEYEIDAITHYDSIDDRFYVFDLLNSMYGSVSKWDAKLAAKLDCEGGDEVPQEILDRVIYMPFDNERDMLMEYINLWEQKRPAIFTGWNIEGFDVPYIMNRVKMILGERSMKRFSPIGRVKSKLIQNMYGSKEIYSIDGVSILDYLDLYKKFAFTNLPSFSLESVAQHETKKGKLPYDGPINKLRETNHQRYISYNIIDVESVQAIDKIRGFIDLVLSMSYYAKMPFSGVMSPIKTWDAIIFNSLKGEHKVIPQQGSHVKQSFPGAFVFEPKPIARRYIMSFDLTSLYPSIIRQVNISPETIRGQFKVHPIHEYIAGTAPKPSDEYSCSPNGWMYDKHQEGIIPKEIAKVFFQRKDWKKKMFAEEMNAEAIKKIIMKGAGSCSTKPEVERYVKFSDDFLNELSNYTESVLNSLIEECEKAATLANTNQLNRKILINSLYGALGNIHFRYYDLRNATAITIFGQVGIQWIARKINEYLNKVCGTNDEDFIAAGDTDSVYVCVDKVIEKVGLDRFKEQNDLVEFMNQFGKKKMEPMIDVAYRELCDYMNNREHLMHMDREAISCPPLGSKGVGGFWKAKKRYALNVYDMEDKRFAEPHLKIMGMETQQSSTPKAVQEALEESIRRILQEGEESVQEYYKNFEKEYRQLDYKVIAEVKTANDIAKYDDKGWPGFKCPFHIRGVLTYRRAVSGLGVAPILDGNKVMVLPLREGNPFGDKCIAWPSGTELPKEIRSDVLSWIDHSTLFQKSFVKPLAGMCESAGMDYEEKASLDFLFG

Plasmodium falciparum [4] = experiment: Inhibition of plasmodium falciparum apicoplast DNA polymerase exonuclease activity using blunt-ended double stranded oligonucleotide with 2-aminopurine at position 1 on 3' end as substrate assessed as exonuclease specific activity at 100 uM (reference value: 2.2 +/- 0.09%)
Plasmodium falciparum [5] = experiment: Non-competitive inhibition of Plasmodium falciparum apicoplast DNA polymerase assessed as inhibition constant for lower affinity site in presence of various concentrations of dNTPs by molecular beacon assay
Plasmodium falciparum [6] = experiment: Non-competitive inhibition of Plasmodium falciparum apicoplast DNA polymerase assessed as inhibition constant for higher affinity site in presence of various concentrations of dNTPs by molecular beacon assay
Plasmodium falciparum [7] = experiment: Inhibition of plasmodium falciparum apicoplast DNA polymerase exonuclease activity using blunt-ended double stranded oligonucleotide with 2-aminopurine at position 1 on 3' end as substrate assessed as reduction in exonuclease proofreading activity at 3'-5' direction at 100 uM relative to control
Plasmodium falciparum [8] = experiment: Competitive inhibition of Plasmodium falciparum apicoplast DNA polymerase assessed as inhibition constant for lower affinity site in presence of various concentrations of dNTPs by molecular beacon assay
[9] = Inhibition of plasmodium falciparum apicoplast DNA polymerase exonuclease activity using blunt-ended double stranded oligonucleotide with 2-aminopurine at position 1 on 3' end as substrate assessed as reduction in exonuclease proofreading activity at 3'-5' direction
Plasmodium falciparum [10] = experiment: Non-competitive inhibition of exonuclease deficient Plasmodium falciparum apicoplast DNA polymerase W512A mutant assessed as inhibition constant for higher affinity site in presence of dNTPs
Plasmodium falciparum [11] = experiment: Non-competitive inhibition of exonuclease deficient Plasmodium falciparum apicoplast DNA polymerase harboring wild type W512 residue assessed as inhibition constant for higher affinity site in presence of dNTPs
Plasmodium falciparum [12] = experiment: Non-competitive inhibition of exonuclease deficient Plasmodium falciparum apicoplast DNA polymerase W512A mutant assessed as inhibition constant for lower affinity site in presence of dNTPs
Plasmodium falciparum [13] = experiment: Non-competitive inhibition of exonuclease deficient Plasmodium falciparum apicoplast DNA polymerase harboring wild type W512 residue assessed as inhibition constant for lower affinity site in presence of dNTPs
Plasmodium falciparum [14] = experiment: Antiparasitic activity against Plasmodium falciparum NF54 with attB plasmid infected in red blood cells assessed as reduction in parasitemia incubated for 96 hrs in presence of isopentenyl pyrophosphate by flow cytometry analysis; type: functional, organism-based; conditions: Red blood cell

Chain of DNA polymerase I (Escherichia coli) (P00582 whole entry): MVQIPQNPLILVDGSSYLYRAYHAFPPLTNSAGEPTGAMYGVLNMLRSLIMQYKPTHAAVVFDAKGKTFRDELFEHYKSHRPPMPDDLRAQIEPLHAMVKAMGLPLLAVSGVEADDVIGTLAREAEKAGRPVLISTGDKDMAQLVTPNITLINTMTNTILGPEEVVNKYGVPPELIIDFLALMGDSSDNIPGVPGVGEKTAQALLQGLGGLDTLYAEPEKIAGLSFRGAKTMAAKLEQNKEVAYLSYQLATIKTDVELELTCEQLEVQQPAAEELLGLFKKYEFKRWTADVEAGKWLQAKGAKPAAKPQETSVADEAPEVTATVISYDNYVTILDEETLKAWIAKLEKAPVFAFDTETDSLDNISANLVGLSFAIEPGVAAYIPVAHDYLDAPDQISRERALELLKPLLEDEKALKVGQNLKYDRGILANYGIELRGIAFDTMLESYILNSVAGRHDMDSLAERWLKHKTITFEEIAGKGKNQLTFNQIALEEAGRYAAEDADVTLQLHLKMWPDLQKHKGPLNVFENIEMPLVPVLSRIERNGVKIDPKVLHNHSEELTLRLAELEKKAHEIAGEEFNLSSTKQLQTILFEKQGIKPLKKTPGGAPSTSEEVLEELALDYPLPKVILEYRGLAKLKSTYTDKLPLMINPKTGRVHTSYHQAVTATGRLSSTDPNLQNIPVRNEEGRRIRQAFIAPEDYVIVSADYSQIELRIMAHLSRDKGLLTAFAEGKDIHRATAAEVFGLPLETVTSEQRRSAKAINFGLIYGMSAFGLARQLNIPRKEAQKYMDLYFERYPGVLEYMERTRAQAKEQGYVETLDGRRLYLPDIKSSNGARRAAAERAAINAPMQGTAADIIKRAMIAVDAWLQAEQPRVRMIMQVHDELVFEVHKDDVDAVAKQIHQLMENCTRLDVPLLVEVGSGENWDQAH

Row | SMILES | inhibition [1] | EC50 (Plasmodium falciparum [2]) | inhibition [3] | Activity (Plasmodium falciparum [4]) | KiL (Plasmodium falciparum [5]) | KiH (Plasmodium falciparum [6]) | inhibition (Plasmodium falciparum [7]) | KiH (Plasmodium falciparum [8]) | IC50 [9] | KiH (Plasmodium falciparum [10]) | KiH (Plasmodium falciparum [11]) | KiL (Plasmodium falciparum [12]) | KiL (Plasmodium falciparum [13]) | Activity (Plasmodium falciparum [14])
1 | Cc1ccc(-n2nc3c(c2NS(=O)(=O)c2ccc(C(C)(C)C)cc2)CSC3)cc1 | inactive | > 20 µM | inactive | 2.2 U | – | – | – | – | – | – | – | – | – | –
2 | CC(C)(C)c1ccc(NC(=O)Nc2c3c(nn2-c2ccc(Cl)cc2)CSC3)cc1 | inactive | 1 µM | inactive | 2.1 U | 15 µM | 1.97 µM | < 50% | – | – | – | – | – | – | –
3 | CC(C)(C)c1ccc(NC(=O)Nc2c3c(nn2-c2cccc(C(F)(F)F)c2)CSC3)cc1 | inactive | 4.3 µM | inactive | 1.4 U | – | 2.17 µM | < 50% | 11.9 µM | – | – | – | – | – | –
4 | Cc1ccc(-n2nc3c(c2NC(=O)Nc2ccc(C(C)(C)C)cc2)CSC3)cc1 | inactive | 4.5 µM | inactive | 1.8 U | – | – | < 50% | – | – | – | – | – | – | –
5 | O=C(Nc1c2c(nn1-c1cccc(Cl)c1)COC2)C(F)(F)F | inactive | > 20 µM | inactive | 2.3 U | – | – | – | – | – | – | – | – | – | –
6 | O=C(Nc1c2c(nn1-c1cccc(Cl)c1)COC2)c1ccc2ccccc2c1 | inactive | 8 µM | inactive | 1.8 U | – | – | – | – | – | – | – | – | – | –
7 | CC(C)(C)c1ccc(C(=O)Nc2c3c(nn2-c2ccc(C(F)(F)F)cc2)CSC3)cc1 | inactive | 4.8 µM | inactive | 2 U | – | – | < 50% | – | – | – | – | – | – | –
8 | Cc1ccc(-n2nc3c(c2NC(=O)c2ccc(C(C)(C)C)cc2)CSC3)cc1 | inactive | > 20 µM | inactive | 1.5 U | – | – | < 50% | – | – | – | – | – | – | –
9 | Cc1cccc(-n2nc3c(c2NC(=O)c2ccc(C(C)(C)C)cc2)CSC3)c1 | inactive | 5.9 µM | inactive | 2.3 U | – | – | < 50% | – | – | – | – | – | – | –
10 | CC(C)(C)c1ccc(C(=O)Nc2c3c(nn2-c2ccc(Cl)cc2)CSC3)cc1 | inactive | 4.2 µM | inactive | 2.4 U | – | – | < 50% | – | – | – | – | – | – | –
11 | CC(C)(C)c1ccc(S(=O)(=O)Nc2c3c(nn2-c2cccc(Cl)c2)CSC3)cc1 | inactive | > 20 µM | inactive | 0.4 U | – | – | > 90% | – | 40 µM | – | – | – | – | –
12 | CC(C)(C)C(=O)Nc1c2c(nn1-c1cccc(Cl)c1)COC2 | inactive | > 20 µM | inactive | 2.6 U | – | – | – | – | – | – | – | – | – | –
13 | Cc1cccc(-n2nc3c(c2NS(=O)(=O)c2ccc(C(C)(C)C)cc2)CSC3)c1 | inactive | > 20 µM | inactive | 2.3 U | – | – | – | – | – | – | – | – | – | –
14 | CC(C)(C)c1ccc(NC(=O)Nc2c3c(nn2-c2ccc(C(F)(F)F)cc2)CSC3)cc1 | inactive | 1.2 µM | inactive | 2.1 U | – | – | < 50% | – | – | – | – | – | – | –
15 | O=C(Nc1c2c(nn1-c1cccc(Cl)c1)COC2)c1ccc(-c2ccccc2)cc1 | inactive | > 20 µM | inactive | 1.2 U | – | – | – | – | – | – | – | – | – | –
16 | CC(C)(C)c1ccc(S(=O)(=O)Nc2c3c(nn2-c2ccc(C(F)(F)F)cc2)CSC3)cc1 | inactive | > 20 µM | inactive | 0.01 U | – | – | > 90% | – | 16 µM | – | – | – | – | –
17 | CC(C)(C)c1ccc(S(=O)(=O)Nc2c3c(nn2-c2ccc(Cl)cc2)CSC3)cc1 | inactive | > 20 µM | inactive | 0.06 U | – | – | > 90% | – | 21 µM | – | – | – | – | –
18 | CC(=O)Nc1c2c(nn1-c1cccc(Cl)c1)COC2 | inactive | > 20 µM | inactive | 2.2 U | – | – | – | – | – | – | – | – | – | –
19 | CC(C)(C)c1ccc(C(=O)Nc2c3c(nn2-c2cccc(C(F)(F)F)c2)CSC3)cc1 | inactive | 2 µM | inactive | 2.4 U | – | – | < 50% | – | – | – | – | – | – | –
20 | CC(C)(C)c1ccc(C(=O)Nc2c3c(nn2-c2cccc(Cl)c2)C[S+]([O-])C3)cc1 (centres undefined) | inactive | 4.8 µM | inactive | 1.9 U | – | – | – | – | – | – | – | – | – | –
21 | CC(C)(C)c1ccc(NC(=O)Nc2c3c(nn2-c2cccc(Cl)c2)CSC3)cc1 | inactive | 1.3 µM | inactive | 2.6 U | 12.2 µM | 2.73 µM | < 50% | – | – | 4.65 µM | 2.73 µM | 6.8 µM | 12.2 µM | –
22 | Cc1cccc(-n2nc3c(c2NC(=O)Nc2ccc(C(C)(C)C)cc2)CSC3)c1 | inactive | 3.1 µM | inactive | 1.2 U | – | – | < 50% | – | – | – | – | – | – | –
23 | CC(C)(C)c1ccc(NC(=O)Nc2c3c(nn2-c2ccncc2)COC3)cc1 | inactive | 3.3 µM | inactive | 1.3 U | – | – | – | – | – | – | – | – | – | –
24 | CC(C)(C)c1ccc(S(=O)(=O)Nc2c3c(nn2-c2cccc(C(F)(F)F)c2)CSC3)cc1 | inactive | > 20 µM | inactive | 0.06 U | – | – | > 90% | – | – | – | – | – | – | –
25 | CC(C)(C)c1ccc(C(=O)Nc2c3c(nn2-c2cccc(Cl)c2)COC3)cc1 | inactive | 4.6 µM | inactive | 1.2 U | – | – | – | – | – | – | – | – | – | –
26 | CC(C)(C)c1ccc(NC(=O)Nc2c3c(nn2-c2cccc(Cl)c2)COC3)cc1 | inactive | 0.74 µM | inactive | 2.4 U | – | – | – | – | – | – | – | – | – | –
27 | CC(C)(C)c1ccc(NC(=O)Nc2c3c(nn2-c2cnccn2)COC3)cc1 | inactive | 2.5 µM | inactive | 1.7 U | – | – | – | – | – | – | – | – | – | –
28 | CC(C)(C)c1ccc(C(=O)Nc2c3c(nn2-c2cccc(Cl)c2)CSC3)cc1 | inactive | 4 µM | inactive | 1.6 U | 15.9 µM | 5.98 µM | < 50% | – | – | – | – | – | – | Active
